Measured values taken from patent US5032575A, “Method for enhancing healing of corneal endothelial wounds” (Eye Research Institute of Retina Foundation, Inc., priority 1989, dated 1991).
“Also recorded” adds a separate entry of the source. Read-outs that look alike come from different tables or passages of the source.

What was measured:
[1] = system: cultured corneal endothelial cells; test: Pharmacological regulation of morphology and mitosis in cultured rabbit corneal endothelium (Example 2); format: cell-based
[2] = system: rabbit corneal endothelial cells; test: Cell shape morphometry of confluent cultured rabbit corneal endothelial cells (Example 1); settings: for potentiation of EGF-induced elongation: 10^-5, equimolar, in presence of EGF; for rank order of potency of cyclooxygenase inhibitors on cell shape: effect on cell shape in presence of EGF; for cell shape at confluence / mean / distribution of the major axes (Amax): cultured seven days; for cell shape at confluence: control cells polygonal; for mean / distribution of the major axes (Amax): control mean 33 μ; for ratio Per/Amax: perimeter / major axis, 3.14 for a perfectly round cell
[3] = system: rabbit corneal endothelial cells; settings: cited from earlier work; for cell shape in first passage cultures (rabbit): EGF and/or indomethacin
[4] = system: human corneal endothelial cells; settings: EGF and/or indomethacin; cited from earlier work
[5] = system: cultured corneal endothelial cells; settings: control cultures and cultures with EGF
[6] = system: Corneal endothelial cells; test: f-actin labelling with rhodamine labelled phallacidin in cultured corneal endothelial cells; settings: 1 week culture; control shows circumferential bands of f-actin
cat corneal endothelium = settings: 22° C.; cited from earlier work
[7] = system: most cell culture systems; settings: cited from earlier work
[8] = system: Corneal endothelial cells; test: Transmission electron microscopy of pharmacologically modulated endothelial phenotypes; settings: cultured cells
[9] = system: intact rabbit corneal endothelium; test: Endothelial wound closure in excised rabbit corneas, specular microscopy with morphometric analysis (Example 3)
[10] = EGF 10 ng/ml, indomethacin 1 μM in M-K medium

In the case of `C=C[C@@]1(C)CC(=O)[C@]2(O)[C@@]3(C)[C@@H](O)CCC(C)(C)[C@@H]3[C@H](O)[C@H](OC(C)=O)[C@@]2(C)O1` [Forskolin], the “effect on EGF and INDO-induced elongation” value ([1]; added with EGF and INDO) is reported as “prevented EGF and INDO-induced elongation” and the “effect on cell density / mitosis in presence of EGF and INDO” value ([1]; added with EGF and INDO) is reported as “inhibited endothelial mitosis”.
In the case of `CCCCCCCCCCCCCC(=O)O[C@@H]1[C@@H](C)[C@@]2(O)[C@@H](C=C(CO)C[C@]3(O)C(=O)C(C)=C[C@@H]23)[C@H]2C(C)(C)[C@]12OC(C)=O` [TPA], the “cell density / mitosis, agent alone” value [1] is reported as “increased cell density”, the “cell shape (elongation), agent alone” value [1] is reported as “caused elongation” and the “synergy when TPA and EGF both present in the medium” value [1] is reported as “synergistic effects were not noted”.
With `CCCCC/C=C\C/C=C\C/C=C\C/C=C\CCCC(=O)O` [arachidonic acid] the “effect on cell shape” value ([2]; added in the absence of EGF, in the presence or absence of indomethacin) was “had no effect on cell shape”.
For `CC(C(=O)O)c1ccc(C(=O)c2cccs2)cc1` (stereo not shown) [suprofen], the “potentiation of EGF-induced elongation” value [2] was “Potentiation of EGF-induced elongation also occurs” and the “rank order of potency of cyclooxygenase inhibitors on cell shape” value [2] was “indomethacin>suprofen>flurbiprofen”.
With Cholera toxin the “cell shape (elongation), agent alone” value [1] was “had no effect on cell shape”, the “effect on EGF and INDO-induced elongation” value [1] was “antagonized EGF and INDO-induced elongation” and the “effect on EGF-induced elongation” value [1] was “EGF-induced elongation did not occur”. The “effect on cell density / mitosis in presence of EGF and INDO” value [1] was “without preventing increased cell density”, the “effect on elongation in response to TPA” value [1] was “did not prevent elongation in response to TPA” and the “effect on mitogenic effect of EGF” value [1] was “potentiated”. For the same compound, the “effect on mitogenic response to TPA” value [1] was “potentiate the mitogenic response”.
For `C[C@@H]1C[C@H]2[C@@H]3CCC4=CC(=O)C=C[C@]4(C)[C@@]3(F)[C@@H](O)C[C@]2(C)[C@@]1(O)C(=O)CO` [dexamethasone], the “potentiation of EGF-induced elongation” value [2] was “has no effect” and the “rank order of potency of cyclooxygenase inhibitors on cell shape” value [2] was “inactivity”.
For `COc1ccc2c(c1)c(CC(=O)O)c(C)n2C(=O)c1ccc(Cl)cc1` [indomethacin], the “cellular elongation, INDO added to TPA containing medium” value ([1]; with TPA) is given as “marked enhancement of cellular elongation”, the “final cell density, INDO added to TPA containing medium” value ([1]; with TPA) is given as “had no effect on final cell density” and the “cell shape in first passage cultures (rabbit)” value [3] is given as “cause elongation”. For the same compound, the “PGE2 synthesis by cultures of polygonal endothelial cells” value [3] was “totally inhibited”, the “cell shape in first passage cultures (human)” value [4] was “cause elongation” and the “synthesis of PGE2” value [5] was “totally inhibits”. The “cell shape at confluence” value [2] was “elongated at confluence with a stellate shape”, the “mean / distribution of the major axes (Amax)” value [2] was “increases” and the “rank order of potency of cyclooxygenase inhibitors on cell shape” value [2] was “indomethacin>suprofen>flurbiprofen”. For the same compound, the “ratio Per/Amax” value [2] was 2.6 and the f-actin staining pattern [6] was “almost completely lacking in individual actin fibers”.
For `CCCCC[C@H](O)/C=C/[C@H]1[C@H](O)CC(=O)[C@@H]1C/C=C\CCCC(=O)O` [PGE2, prostaglandin E2], the “effect of exogenous PGE2 on elongation in cultures treated with EGF and indomethacin” value ([3]; added with EGF and indomethacin) is listed as “blocks elongation”.
In the case of `CC(C(=O)O)c1ccc(-c2ccccc2)c(F)c1` (stereo not shown) [flurbiprofen], the “rank order of potency of cyclooxygenase inhibitors on cell shape” value [2] is reported as “indomethacin>suprofen>flurbiprofen”.
In the case of `CCCCC[C@H](O)/C=C/[C@@H]1[C@@H](C/C=C\CCCC(=O)O)[C@@H](O)C[C@H]1O` [PGF2α], the “effect on elongation of Amax produced by EGF and indomethacin” value ([2]; increasing concentrations/doses added with EGF and indomethacin) is reported as “has no effect on the elongation of Amax”.
In the case of epidermal growth factor [EGF], the “time for association of radiolabeled EGF to be complete” value (cat corneal endothelium) is listed as “approximately 120 minutes”, the “time after addition at which DNA synthesis reaches a maximum” value [7] is listed as “about 22 hours” and the “time after addition at which increased DNA synthesis begins” value [7] is listed as “approximately 15 hours”. The “cell shape in first passage cultures (rabbit)” value [3] was “cause elongation”, the “shape change in cultured rabbit tissue (April 1986 paper)” value [3] was “induce a shape change in the cells that is independent of mitosis” and the “cell shape in first passage cultures (human)” value [4] was “cause elongation”. For the same compound, the “synthesis of PGE2” value [5] was “unaffected”, the “ultrastructure by transmission electron microscopy” value [8] was “Junctional complexes were absent” and the cell density ([2]; compared with cells grown under control conditions) was “little or no effect on cell density”. For the same compound, the “cell shape at confluence” value [2] was “spindle-shaped at confluence”, the “mean / distribution of the major axes (Amax)” value [2] was “significantly greater distribution of major axes” and the “ratio Per/Amax” value [2] was “decreases significantly”. The “average percent change of the shape factor relative to control group” value ([9]; 150 minutes after wounding) was “two times greater”, the “average displacement of cells near the wound boundary” value ([9]; 150 minutes after wounding, control 7 μm) was ~16 μm and the “migration of cells near the wound boundary vs control group” value [9, 10] was “migrated significantly more than those in the control group; also recorded: significantly increased migration of cells near the wound boundary”. The “wound closure time vs control group” value [9, 10] was “shortened the wound closure time”, the “time after wounding at which wound area reached maximum” value ([9]; EGF 10 ng/ml, indomethacin 1 μM in M-K medium, 37° C., control 20 minutes) was 10 min and the “time for wound area to decrease to 50% of the original size” value ([9]; EGF 10 ng/ml, indomethacin 1 μM, control about 240 minutes) was ≤ 120 min. For the same compound, the “relative average percent change of the shape factor, significance vs control (FIG. 3)” value ([9]; EGF+indomethacin at 50, 100, 150 minutes, EGF at 100 and 150 minutes) was “significantly different from the control group”, the “time of peak of the shape change” value ([9]; one cornea per group, control 200 minutes) was 150 min and the “wound closed to percent of the original size” value ([9]; within 250 minutes after wounding) was 80%.
